According to ChEMBL document CHEMBL5143564, “PES derivative PESA is a potent tool to globally profile cellular targets of PES” (Bioorg Med Chem Lett, 2022):
Active and inactive are the calls of the source. The calls are words filed in the database; no cut-off is given here.

Columns and labels:
[1] = biological target: Coronin-1A (Homo sapiens) (UniProt P31146); assay: Binding affinity to coronin-1A in human DOHH-2 cells measured after 6 hrs by pull-down assay; type: cell-based; conditions: DDE = dose-dependent effect
Coronin-1A (Homo sapiens), sequence (P31146 whole entry): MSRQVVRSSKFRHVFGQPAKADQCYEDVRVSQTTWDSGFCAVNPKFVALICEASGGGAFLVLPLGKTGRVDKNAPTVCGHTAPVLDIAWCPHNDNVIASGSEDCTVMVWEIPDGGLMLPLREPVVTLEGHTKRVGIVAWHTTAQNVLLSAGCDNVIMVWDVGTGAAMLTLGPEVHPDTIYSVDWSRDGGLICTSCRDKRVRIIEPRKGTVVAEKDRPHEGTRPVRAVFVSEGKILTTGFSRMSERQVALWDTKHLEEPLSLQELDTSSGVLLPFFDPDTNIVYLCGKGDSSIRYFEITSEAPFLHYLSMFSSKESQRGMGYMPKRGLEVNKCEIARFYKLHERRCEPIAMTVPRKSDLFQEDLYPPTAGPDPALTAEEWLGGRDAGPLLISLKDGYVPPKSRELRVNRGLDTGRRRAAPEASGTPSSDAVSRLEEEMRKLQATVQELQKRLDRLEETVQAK

DOHH-2 [2] = assay: Induction of autophagy in human DOHH-2 cells assessed as reduction in p62 expression at 8 uM measured after 4 to 24 hrs by Western blot analysis; type: functional, cell-based; conditions: time 4-24 hrs
[3] = biological target: T1, Protein disulfide-isomerase A3 (Homo sapiens) (UniProt P30101); assay: Binding affinity to PDIA3 in human MDA-MB-453 cells measured after 6 hrs by pull-down assay; type: cell-based; conditions: dose <= 20.0 µM, DDE = dose-dependent effect
T1 sequence (whole entry): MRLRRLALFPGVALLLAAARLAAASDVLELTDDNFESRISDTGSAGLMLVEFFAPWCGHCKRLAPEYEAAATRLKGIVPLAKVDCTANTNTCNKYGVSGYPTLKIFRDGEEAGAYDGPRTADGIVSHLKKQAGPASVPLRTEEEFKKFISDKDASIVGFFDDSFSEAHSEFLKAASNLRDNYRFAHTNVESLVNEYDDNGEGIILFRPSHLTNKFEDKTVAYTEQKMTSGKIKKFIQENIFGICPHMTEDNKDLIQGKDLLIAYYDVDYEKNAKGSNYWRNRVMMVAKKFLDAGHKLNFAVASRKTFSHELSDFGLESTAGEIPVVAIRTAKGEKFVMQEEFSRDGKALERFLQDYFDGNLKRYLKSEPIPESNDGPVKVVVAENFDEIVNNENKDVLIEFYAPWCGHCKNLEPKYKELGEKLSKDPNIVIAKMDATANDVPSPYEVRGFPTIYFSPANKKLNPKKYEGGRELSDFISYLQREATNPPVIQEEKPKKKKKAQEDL

[4] = biological target: T2, Tubulin alpha (Homo sapiens) (UniProt P0DPH7+P68366+Q71U36+P68363+Q9BQE3+Q6PEY2+A6NHL2+Q9NY65); assay: Binding affinity to alpha-tubulin in human DOHH-2 cells by MS analysis; type: cell-based
[5] = biological target: T2, Tubulin alpha (Homo sapiens); assay: Binding affinity to alpha-tubulin in human DOHH-2 cells measured after 6 hrs by pull-down assay; type: cell-based; conditions: DDE = dose-dependent effect
Homo sapiens = organism: Homo sapiens; assay: Binding affinity to ADP-bound full-length human HSP70 assessed as cysteine adduct formation at SBDalpha domain by measuring half life at 1 mM by fluorescence spectra analysis
HepG2 = assay: Cytotoxicity against human HepG2 cells measured after 72 hrs; type: functional, cell-based
[6] = biological target: T3, D-3-phosphoglycerate dehydrogenase (Homo sapiens) (UniProt O43175); assay: Binding affinity to D-3-phosphoglycerate dehydrogenase in human DOHH-2 cells by MS analysis; type: cell-based
T3 sequence (whole entry): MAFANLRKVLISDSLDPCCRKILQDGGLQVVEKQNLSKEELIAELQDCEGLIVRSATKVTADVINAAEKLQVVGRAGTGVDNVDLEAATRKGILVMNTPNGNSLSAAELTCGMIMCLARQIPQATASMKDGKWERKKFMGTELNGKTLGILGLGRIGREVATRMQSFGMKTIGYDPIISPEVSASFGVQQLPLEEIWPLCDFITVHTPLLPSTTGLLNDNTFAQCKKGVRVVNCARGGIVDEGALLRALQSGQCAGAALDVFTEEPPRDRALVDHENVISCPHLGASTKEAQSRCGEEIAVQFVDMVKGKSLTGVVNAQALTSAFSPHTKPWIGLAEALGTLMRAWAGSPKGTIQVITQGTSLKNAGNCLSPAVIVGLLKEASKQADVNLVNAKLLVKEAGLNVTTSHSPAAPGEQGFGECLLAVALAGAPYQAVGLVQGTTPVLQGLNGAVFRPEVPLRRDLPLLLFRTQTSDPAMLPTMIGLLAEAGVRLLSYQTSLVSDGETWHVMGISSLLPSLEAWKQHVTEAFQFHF

[7] = biological target: T4, Thioredoxin-dependent peroxide reductase, mitochondrial (Homo sapiens) (UniProt P30048); assay: Binding affinity to PRDX3 in human DOHH-2 cells by MS analysis; type: cell-based
T4 sequence (whole entry): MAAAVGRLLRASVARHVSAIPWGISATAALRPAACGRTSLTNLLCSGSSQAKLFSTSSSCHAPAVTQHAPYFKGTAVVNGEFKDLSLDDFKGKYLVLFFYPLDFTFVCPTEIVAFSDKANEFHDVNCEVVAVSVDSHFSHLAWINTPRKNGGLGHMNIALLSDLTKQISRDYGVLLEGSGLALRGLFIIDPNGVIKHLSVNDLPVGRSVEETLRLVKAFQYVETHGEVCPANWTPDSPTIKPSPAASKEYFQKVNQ

HEK-293T = assay: Cytotoxicity against HEK293T cells up to 20 uM measured after 24 hrs; type: toxicity, cell-based; conditions: human
DOHH-2 [8] = assay: Cytotoxicity against human DOHH-2 cells up to 20 uM measured after 24 hrs; type: functional, cell-based
[9] = biological target: Tubulin beta (Homo sapiens) (UniProt P68371+Q9H4B7+Q13509+P04350+Q3ZCM7+P07437+Q13885+Q9BVA1+Q9BUF5+A6NNZ2); assay: Binding affinity to beta-tubulin in human DOHH-2 cells measured after 6 hrs by pull-down assay; type: cell-based; conditions: DDE = dose-dependent effect
[10] = biological target: Coronin-1A (Homo sapiens) (UniProt P31146); assay: Binding affinity to coronin-1A in human DOHH-2 cells by MS analysis; type: cell-based
DOHH-2 [11] = assay: Induction of autophagy in human DOHH-2 cells assessed as change in transformation of LC3B1 to LC3B2 expression at 0.5 to 8 uM measured after 24 hrs by Western blot analysis; type: functional, cell-based; conditions: dose 0.5-8 µM
[12] = biological target: Elongation factor 2 (Homo sapiens) (UniProt P13639); assay: Binding affinity to elongation factor 2 in human DOHH-2 cells measured after 6 hrs by pull-down assay; type: cell-based; conditions: DDE = dose-dependent effect
DOHH-2 [13] = assay: Induction of autophagy in human DOHH-2 cells assessed as reduction in p62 expression at 0.5 to 8 uM measured after 24 hrs by Western blot analysis; type: functional, cell-based; conditions: dose 0.5-8 µM
[14] = GSH reactivity in pH 7.4 buffer assessed as GSH adduct formation by measuring half life at 50 uM by near-UV absorbance spectra analysis; type: physicochemical; conditions: pH 7.4, 50 µM
[15] = biological target: Glutathione S-transferase 3, mitochondrial (Homo sapiens) (UniProt O14880); assay: Binding affinity to MGST3 in human MDA-MB-453 cells measured after 6 hrs by pull-down assay; type: cell-based; conditions: dose <= 20.0 µM, DDE = dose-dependent effect
Glutathione S-transferase 3, mitochondrial (Homo sapiens), sequence (O14880 whole entry): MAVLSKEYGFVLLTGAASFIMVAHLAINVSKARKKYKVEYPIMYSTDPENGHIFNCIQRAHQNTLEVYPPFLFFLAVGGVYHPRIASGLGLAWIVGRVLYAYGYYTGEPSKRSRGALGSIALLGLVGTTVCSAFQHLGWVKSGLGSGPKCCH

[16] = biological target: T5, Peroxiredoxin-6 (Homo sapiens) (UniProt P30041); assay: Binding affinity to PRDX6 in human DOHH-2 cells measured after 6 hrs by pull-down assay; type: cell-based; conditions: DDE = dose-dependent effect
T5 sequence (whole entry): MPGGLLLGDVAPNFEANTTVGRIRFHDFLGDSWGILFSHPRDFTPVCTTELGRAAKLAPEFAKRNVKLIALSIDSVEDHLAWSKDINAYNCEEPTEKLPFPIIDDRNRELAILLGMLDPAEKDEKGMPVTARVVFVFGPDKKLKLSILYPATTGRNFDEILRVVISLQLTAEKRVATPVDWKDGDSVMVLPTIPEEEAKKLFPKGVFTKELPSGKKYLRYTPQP

DOHH-2 [17] = assay: Up regulation of HSP70 expression in human DOHH-2 cells at 8 uM measured after 4 to 24 hrs by Western blot analysis; type: functional, cell-based; conditions: time 4-24 hrs
[18] = biological target: Elongation factor 2 (Homo sapiens) (UniProt P13639); assay: Binding affinity to elongation factor 2 in human MDA-MB-453 cells measured after 6 hrs by pull-down assay; type: cell-based; conditions: dose <= 20.0 µM, DDE = dose-dependent effect

- Activity [1]: Dde
- Activity [3]: Dde
- Activity [4]: Active
- Activity [5]: Dde
- T1/2 (Homo sapiens): 1.53 h
- Activity [6]: Active
- Activity [7]: Active
- Activity [9]: Dde
- Activity [10]: Active
- Activity [12]: Dde
- t1/2 [14]: 3.91 min
- Activity [15]: Dde
- Activity [16]: Dde
- Activity [18]: Dde
Compound: C#Cc1cccc(C#CS(N)(=O)=O)c1
- Activity (DOHH-2 [2]): Active
- Activity (HepG2): Active
- Activity (HEK-293T): Non-Toxic
- Activity (DOHH-2 [8]): Active
- Activity (DOHH-2 [11]): Active
- Activity (DOHH-2 [13]): Active
- Activity (DOHH-2 [17]): Active
